Measured values: patent US8084399B2, “Process for screening of a binding amphiphilic peptides specific for hairpin RNA” (priority 2009, dated 2011)
Several values for one entry are separate records, joined by “and”; a condition that tells them apart may be missing. Equal values may be shown once. Where no end group is shown, it is not given here. [ ]: non-standard residue; d: D form. Orn = NCCC[C@H](N)C(=O)O; Dab = NCC[C@H](N)C(=O)O; Dap = NC[C@H](N)C(=O)O

What was measured:
[1] = biological target: RRE hairpin RNA; assay: Fluorescence anisotropy competition with Rev-N-rhodamine probe, binding to RRE hairpin RNA; design: species or system HIV; conditions: 20° C., pH 7.4, read-out: Dissociation constant, RRE
Description: (§1) Binding force to each target hairpin RNA (IRES, RRE, TAR and 16S A-site) was measured by fluorescence polarization using alanine scanned peptide library (1b-1h).
(§2) Particularly, […] of each target RNA was prepared at the concentration of 10 mM, which stood at 65° C. for 10 minutes and then cooled down slowly at room temperature, leading to folding. The amphiphilic peptide was prepared respectively at the concentration of […], which were maintained at 0° C. As a probe, rev peptide labeled with rhodamine (Rev-N-rhodamine) emitting […] fluorescence was prepared at the concentration of 10 mM. Buffer was composed of 140 mM NaCl, 5 mM KCl, 1 mM MgCl2, and 20 mM HEPES (N-2-Hydroxyethylpiperazine-N′-2-Ethanesulfonic Acid, pH 7.4). Fluorescence Anisotropy was measured using AMINCO-Bowman Series Luminescence Spectrometer at 20° C. Ten nM of the probe was added in […] of buffer, to which target RNA was added to induce interaction between the probe and the target RNA. At that time, anisotropy value increased. Then, the synthesized peptide competing with the probe for binding site was added thereto with increasing the concentration slowly. Changes of fluorescence polarization were measured until fluorescence polarization reached as low as the beginning. Considering the concentration and amount of the peptide added, binding force to target RNA was calculated. That is, the binding strength between target RNA and peptide was determined according to the following KaleidaGraph. [Peptide]=Kd(Amax−A)/[Kd(A−A0)+1]×[RNA]−Kd(A−A0)^2[Probe]0/(Amax−A)(Amax−A0)
(§3) Herein, [Peptide] indicates the concentration of peptide, [RNA] indicates the concentration of target RNA, and [Probe]0 indicates the concentration of probe. A is the value of fluorescence anisotropy of sample, Amax is the value of totally bound tracer, and A0 is the value of totally free tracer.

[2] = biological target: TAR hairpin RNA; assay: Fluorescence anisotropy competition with Rev-N-rhodamine probe, binding to TAR hairpin RNA; design: species or system HIV; conditions: fluorescence anisotropy, 20° C., pH 7.4; read-out: Dissociation constant, TAR
Description: as §1, §2, §3

[3] = biological target: 16S ribosomal RNA A-site; assay: Fluorescence anisotropy competition with Rev-N-rhodamine probe, binding to 16S A-site; conditions: 20° C., pH 7.4, read-out: Dissociation constant, 16S A-site
Description: as §1, §2, §3

[4] = system: IRES domain IV hairpin; assay: Fluorescence anisotropy competition with Rev-N-rhodamine probe, binding to IRES hairpin; design: species or system HCV; conditions: for differentiation coefficient (IRES): (mean Kd to other hairpin RNA)/(Kd to one hairpin RNA); for Kd: fluorescence anisotropy, 20° C., pH 7.4, read-out: Dissociation constant, IRES
Description: as §1, §2, §3

[5] = Circular dichroism (CD), percentage of alpha-helix; assay type: physicochemical; conditions: CD at 20° C., condition not given; for Alpha-helical rate (%), second value of pair: value after the slash; for Alpha-helical rate (%), first value of pair: value before the slash
Description: To investigate alpha-helix of the amphiphilic peptide (1a-1h), circular dichroism (CD) was performed. Particularly, CD was measured at 20° C. by using JASCO model J715 spectropolarimeter. Scanning was performed at 190-250 nm three times (bandwidth: 1 nm, datapitch: 0.5 nm, speed: 100 nm/min), which were averaged to obtain CD data. Spectrum was corrected by measuring background spectrum. CD signal was recorded after modulating thereof with mean residue ellipticity [Q]. Percentage (%) of alpha-helix(fn) was calculated by the following formula. [Q]=Qobs[MRW/(10lc)]
MRW=mean residue weight (dividing molecular weight by the number of peptide bond, l=pathway length (cm), c=concentration (mg/mL). fn=([Q]222−[Q]coil)/([Q]helix−[Q]coil) [Q]helix=−40,000[…]+100t [Q]coil=640−45t
[Q]222=mean residue ellipticity at 222 nm (deg cm2 mol-1), [Q]helix=ellipticity of peptide having complete helical structure, [Q]coil=ellipticity of peptide having complete random coil structure, n=number of amino acid, t=° C.

Substance	Kd [1] [nM]	Kd [2] [nM]	Kd [3] [nM]	differentiation coefficient (IRES) [4]	Kd [4] [nM]	Alpha-helical rate (%), second value of pair [5] [%]	Alpha-helical rate (%), first value of pair [5] [%]
LKKLLDabLLOrnKLLDapLAG (LKKLL[Dab]LL[Orn]KLL[Dap]LAG-NH2; N-terminus assumed; SMILES CC(C)C[C@H](NC(=O)[C@H](CN)NC(=O)[C@H](CC(C)C)NC(=O)[C@H](CC(C)C)NC(=O)[C@H](CCCCN)NC(=O)[C@H](CCCN)NC(=O)[C@H](CC(C)C)NC(=O)[C@H](CC(C)C)NC(=O)[C@H](CCN)NC(=O)[C@H](CC(C)C)NC(=O)[C@H](CC(C)C)NC(=O)[C@H](CCCCN)NC(=O)[C@H](CCCCN)NC(=O)[C@@H](N)CC(C)C)C(=O)N[C@@H](C)C(=O)NCC(N)=O) [2m, second generation peptide, hydrophilic face modified]	19	31	13	4.9	4.3	69	49
LKKLLKLLDapKLLKLAG (LKKLLKLL[Dap]KLLKLAG-NH2; N-terminus assumed; SMILES CC(C)C[C@H](NC(=O)[C@H](CCCCN)NC(=O)[C@H](CC(C)C)NC(=O)[C@H](CC(C)C)NC(=O)[C@H](CCCCN)NC(=O)[C@H](CN)NC(=O)[C@H](CC(C)C)NC(=O)[C@H](CC(C)C)NC(=O)[C@H](CCCCN)NC(=O)[C@H](CC(C)C)NC(=O)[C@H](CC(C)C)NC(=O)[C@H](CCCCN)NC(=O)[C@H](CCCCN)NC(=O)[C@@H](N)CC(C)C)C(=O)N[C@@H](C)C(=O)NCC(N)=O) [2f, second generation peptide, hydrophilic face modified]	10	11	15	0.6	20	57	25
LKKLLDabLLKKLLDapLAG (LKKLL[Dab]LLKKLL[Dap]LAG-NH2; N-terminus assumed; SMILES CC(C)C[C@H](NC(=O)[C@H](CN)NC(=O)[C@H](CC(C)C)NC(=O)[C@H](CC(C)C)NC(=O)[C@H](CCCCN)NC(=O)[C@H](CCCCN)NC(=O)[C@H](CC(C)C)NC(=O)[C@H](CC(C)C)NC(=O)[C@H](CCN)NC(=O)[C@H](CC(C)C)NC(=O)[C@H](CC(C)C)NC(=O)[C@H](CCCCN)NC(=O)[C@H](CCCCN)NC(=O)[C@@H](N)CC(C)C)C(=O)N[C@@H](C)C(=O)NCC(N)=O) [2l, second generation peptide, hydrophilic face modified]	14	16	14	13	1.1	50	40
LKKLLDabLLKKLLKLAG (LKKLL[Dab]LLKKLLKLAG-NH2; N-terminus assumed; SMILES CC(C)C[C@H](NC(=O)[C@H](CCCCN)NC(=O)[C@H](CC(C)C)NC(=O)[C@H](CC(C)C)NC(=O)[C@H](CCCCN)NC(=O)[C@H](CCCCN)NC(=O)[C@H](CC(C)C)NC(=O)[C@H](CC(C)C)NC(=O)[C@H](CCN)NC(=O)[C@H](CC(C)C)NC(=O)[C@H](CC(C)C)NC(=O)[C@H](CCCCN)NC(=O)[C@H](CCCCN)NC(=O)[C@@H](N)CC(C)C)C(=O)N[C@@H](C)C(=O)NCC(N)=O) [2b, second generation peptide, hydrophilic face modified]	10	7.3	13	6.4	1.6	63	23
LKKLLOrnLLKKLLKLAG (LKKLL[Orn]LLKKLLKLAG-NH2; N-terminus assumed; SMILES CC(C)C[C@H](NC(=O)[C@H](CCCCN)NC(=O)[C@H](CC(C)C)NC(=O)[C@H](CC(C)C)NC(=O)[C@H](CCCCN)NC(=O)[C@H](CCCCN)NC(=O)[C@H](CC(C)C)NC(=O)[C@H](CC(C)C)NC(=O)[C@H](CCCN)NC(=O)[C@H](CC(C)C)NC(=O)[C@H](CC(C)C)NC(=O)[C@H](CCCCN)NC(=O)[C@H](CCCCN)NC(=O)[C@@H](N)CC(C)C)C(=O)N[C@@H](C)C(=O)NCC(N)=O) [2a, second generation peptide, hydrophilic face modified]	17	14	15	2.5	6.1	82	13
LKKLLKLLOrnKLLKLAG (LKKLLKLL[Orn]KLLKLAG-NH2; N-terminus assumed; SMILES CC(C)C[C@H](NC(=O)[C@H](CCCCN)NC(=O)[C@H](CC(C)C)NC(=O)[C@H](CC(C)C)NC(=O)[C@H](CCCCN)NC(=O)[C@H](CCCN)NC(=O)[C@H](CC(C)C)NC(=O)[C@H](CC(C)C)NC(=O)[C@H](CCCCN)NC(=O)[C@H](CC(C)C)NC(=O)[C@H](CC(C)C)NC(=O)[C@H](CCCCN)NC(=O)[C@H](CCCCN)NC(=O)[C@@H](N)CC(C)C)C(=O)N[C@@H](C)C(=O)NCC(N)=O) [2d, second generation peptide, hydrophilic face modified]	7.6	9.8	18	8.7	1.3	57	28
LKKLLKLLOrnKLLDapWAG (LKKLLKLL[Orn]KLL[Dap]WAG-NH2; N-terminus assumed; SMILES CC(C)C[C@H](NC(=O)[C@H](CC(C)C)NC(=O)[C@H](CCCCN)NC(=O)[C@H](CCCN)NC(=O)[C@H](CC(C)C)NC(=O)[C@H](CC(C)C)NC(=O)[C@H](CCCCN)NC(=O)[C@H](CC(C)C)NC(=O)[C@H](CC(C)C)NC(=O)[C@H](CCCCN)NC(=O)[C@H](CCCCN)NC(=O)[C@@H](N)CC(C)C)C(=O)N[C@@H](CN)C(=O)N[C@@H](Cc1c[nH]c2ccccc12)C(=O)N[C@@H](C)C(=O)NCC(N)=O) [peptide 3h, third generation peptide, both faces modified]	28	15	19	1.6	13	56	12
LKKLLDabLLOrnKLLKLAG (LKKLL[Dab]LL[Orn]KLLKLAG-NH2; N-terminus assumed; SMILES CC(C)C[C@H](NC(=O)[C@H](CCCCN)NC(=O)[C@H](CC(C)C)NC(=O)[C@H](CC(C)C)NC(=O)[C@H](CCCCN)NC(=O)[C@H](CCCN)NC(=O)[C@H](CC(C)C)NC(=O)[C@H](CC(C)C)NC(=O)[C@H](CCN)NC(=O)[C@H](CC(C)C)NC(=O)[C@H](CC(C)C)NC(=O)[C@H](CCCCN)NC(=O)[C@H](CCCCN)NC(=O)[C@@H](N)CC(C)C)C(=O)N[C@@H](C)C(=O)NCC(N)=O) [2j, second generation peptide, hydrophilic face modified]	21	10	14	6.3	2.4	57	49
LKKLLKLLOrnKLLDapLAG (LKKLLKLL[Orn]KLL[Dap]LAG-NH2; N-terminus assumed; SMILES CC(C)C[C@H](NC(=O)[C@H](CN)NC(=O)[C@H](CC(C)C)NC(=O)[C@H](CC(C)C)NC(=O)[C@H](CCCCN)NC(=O)[C@H](CCCN)NC(=O)[C@H](CC(C)C)NC(=O)[C@H](CC(C)C)NC(=O)[C@H](CCCCN)NC(=O)[C@H](CC(C)C)NC(=O)[C@H](CC(C)C)NC(=O)[C@H](CCCCN)NC(=O)[C@H](CCCCN)NC(=O)[C@@H](N)CC(C)C)C(=O)N[C@@H](C)C(=O)NCC(N)=O) [peptide 2k, second generation peptide, hydrophilic face modified]	20	13	17	24 and 25	0.68	61	48
